Reference: patent US9404086B2, “Method for cell differentiation” (GE HEALTHCARE UK LIMITED, priority 2014, dated 2016)

B1: Wnt3a: growth factor reported to aid in DE differentiation, used in conjunction with Activin A (protein, UniProt P56704 19-352, looked up)
Protein Wnt-3a: SYPIWWSLAVGPQYSSLGSQPILCASIPGLVPKQLRFCRNYVEIMPSVAEGIKIGIQECQHQFRGRRWNCTTVHDSLAIFGPVLDKATRESAFVHAIASAGVAFAVTRSCAEGTAAICGCSSRHQGSPGKGWKWGGCSEDIEFGGMVSREFADARENRPDARSAMNRHNNEAGRQAIASHMHLKCKCHGLSGSCEVKTCWWSQPDFRAIGDFLKDKYDSASEMVVEKHRESRGWVETLRPRYTYFKVPTERDLVYYEASPNFCEPNPETGSFGTRDRTCNVSSHGIDGCDLLCCGRGHNARAERRREKCRCVFHWCCYVSCQECTRVYDVHTCK

Legend:
Assay type in all cases: cell-based, human
hESC [1] = test: Flow cytometry analysis of differentiation markers at day 4 of DE differentiation; conditions: for differentiation to DE: supplementation of Activin A, compared with Activin A and DMSO
Procedure: Definitive endoderm formation: hESC were passaged onto the appropriate culture flasks or plates at 0.6×10^5 cells/cm^2 and cultured for 2 days. To initiate definitive endoderm differentiation hESC were washed once with PBS and cultured in RMPI 1640 medium (Life Technologies) supplemented with 100 ng/ml of Activin A (R&D Systems) and 0.25 to 2% of DMSO (Sigma). FBS (0.2%) was added after first 24 hours and cells were cultured for four days with media changed daily.
Cells cultured in 6 well plates were washed twice in PBS and treated with 0.25% trypsin-EDTA (Life Technologies) to obtain single cell suspensions. Trypsin was inactivated after 5 min of incubation by adding medium containing 10% FBS. Cells were counted, centrifuged at 300 g for 5 min, washed twice with PBS and subsequently fixed in 2% paraformaldehyde (USB). Following 15 min incubation at room temperature cells were washed in PBS and perm/wash buffer (PWB) (BD) and subsequently resuspended at 4×10^6 cells/ml in perm/wash buffer supplemented with 0.1 mg/ml human IgG (Sigma) and 10% serum from the species of secondary antibody (Life Technologies). Cells were incubated for 30 min at 4° C. and then 50 μl aliquots (2×10^5 cells) were transferred to individual 5 ml polystyrene round-bottom FACS assay tubes. For double staining of cells with OCT4 and SOX17, cells were stained in perm/wash buffer first with mouse anti-OCT4 (Cell Signalling) and incubated for 1 h at room temperature, following by two washes with PBS and incubation in perm/wash buffer with goat anti-mouse-FITC (Molecular Probes) and goat anti-SOX17-APC (R&D Systems). Following 1 h incubation at 4° C., samples were washed twice and resuspended in 0.2% FBS in PBS in a final volume of […]. Separate staining for OCT4 and SOX17 was performed analogously. Cells were analysed on a BD FACSCalibur flow cytometer and data analysed using CellQuest software.

hESC [2] = test: qRT-PCR analysis of differentiation markers at day 4 of DE differentiation
Procedure: Definitive endoderm formation: hESC were passaged onto the appropriate culture flasks or plates at 0.6×10^5 cells/cm^2 and cultured for 2 days. To initiate definitive endoderm differentiation hESC were washed once with PBS and cultured in RMPI 1640 medium (Life Technologies) supplemented with 100 ng/ml of Activin A (R&D Systems) and 0.25 to 2% of DMSO (Sigma). FBS (0.2%) was added after first 24 hours and cells were cultured for four days with media changed daily. Isolation of total cellular RNA was performed using an illustra RNAspin Mini RNA Isolation Kit (GE Healthcare) and the concentration of RNA in each sample measured on a NanoDrop 1000 spectrophotometer. 1 μg of extracted total RNA was reverse transcribed using High Capacity cDNA Reverse Transcription Kit (Applied Biosystems). TaqMan quantitative PCR was performed using unlabelled PCR primers and FAM-based probes (Applied Biosystems by Life Technologies) in conjunction with TaqMan Universal PCR Master Mix, No AmpErase UNG (Applied Biosystems). Concentrated TaqMan PCR Master Mix (2×) was combined with water and cDNA. The final concentration of Master Mix was achieved by addition of appropriate concentrations of primers/FAM probes diluted in water. Reactions were carried out on a 7900HT Fast Real-Time PCR System (Applied Biosystems). qRT-PCR cycling conditions were: 95° C. for 10 min, and subsequently 45 cycles of 95° C. for 10 sec and 60° C. for 1 min. Each sample was run in triplicate with GAPDH as a reference gene. Analysis of results was performed in SDS Software for the 7900HT Fast Real-Time PCR System. Relative quantification was calculated against GAPDH and B-Actin housekeeping genes and standard derivations report n=3 replicates from each sample.

hESC [3] = test: Immunofluorescence analysis of differentiation markers at day 4 of DE differentiation
Procedure: Definitive endoderm formation: hESC were passaged onto the appropriate culture flasks or plates at 0.6×10^5 cells/cm^2 and cultured for 2 days. To initiate definitive endoderm differentiation hESC were washed once with PBS and cultured in RMPI 1640 medium (Life Technologies) supplemented with 100 ng/ml of Activin A (R&D Systems) and 0.25 to 2% of DMSO (Sigma). FBS (0.2%) was added after first 24 hours and cells were cultured for four days with media changed daily. For detection of stage-specific markers, cells were grown and differentiated in 96 well plates (uClear black plate with clear flat bottom, Greiner). Cells were rinsed twice with PBS and fixed in 4% paraformaldehyde (USB) for 15 min at room temperature and then washed twice with PBS and blocked for 30 min at RT in 1% BSA (Life Technologies) and 0.1 mg/ml human IgG (Sigma) in perm/wash buffer (BD). Cells were subsequently stained for 2 hours at RT or overnight at 4° C. with primary rabbit anti-OCT4 (Cell Signaling), mouse and anti-SOX17 (Abcam) antibodies diluted in perm/wash buffer. Cells were subsequently washed several times with perm/wash buffer and incubated at 4° C. in the dark with goat anti-mouse-FITC and chicken anti-rabbit-Cy5 (Molecular probes) diluted 1:400 in perm/wash buffer. […]

hESC [4] = test: Differentiation of hESC-derived DE towards hepatic like cells (AFP day 12, ALB day 28); conditions: day 28 (hepatic like cells), with increasing concentrations of DMSO during DE stage
Procedure: Definitive endoderm formation: hESC were passaged onto the appropriate culture flasks or plates at 0.6×10^5 cells/cm^2 and cultured for 2 days. To initiate definitive endoderm differentiation hESC were washed once with PBS and cultured in RMPI 1640 medium (Life Technologies) supplemented with 100 ng/ml of Activin A (R&D Systems) and 0.25 to 2% of DMSO (Sigma). FBS (0.2%) was added after first 24 hours and cells were cultured for four days with media changed daily. Hepatic specification: hESC-derived definitive endoderm cells were washed once with PBS and cultured in KO-DMEM medium and 2% KOSR supplemented with 1 mM L-glutamine, NEAA (all from Life Technologies), B-Mercaptoethanol (Sigma), 30 ng/ml BMP2, 10 ng/ml FGF4, 0.5% DMSO for 5 days with BMP4. […] Isolation of total cellular RNA was performed using an illustra RNAspin Mini RNA Isolation Kit (GE Healthcare) and the concentration of RNA in each sample measured on a NanoDrop 1000 spectrophotometer. […] TaqMan quantitative PCR was performed using unlabelled PCR primers and FAM-based probes (Applied Biosystems by Life Technologies) in conjunction with TaqMan Universal PCR Master Mix, No AmpErase UNG (Applied Biosystems). […] Relative quantification was calculated against GAPDH and B-Actin housekeeping genes and standard derivations report n=3 replicates from each sample.

[5] = 0.5% and 1% DMSO added to Activin A containing medium, day 4, relative to control cells treated with Activin A alone
[6] = increasing concentrations of DMSO with Activin A, day 4

| Molecule | OCT4 expressing cells (hESC [1]; [5]) | SOX17 expressing cells (hESC [1]; [5]) | OCT4 expression (hESC [1]; increasing concentrations of DMSO with Activin A, day 4, flow cytometry confirmation) | expression of pluripotency genes (hESC [2]; 0.5% to 0.6% DMSO added to Activin A-based medium during definitive endoderm derivation) | DE differentiation compared with established prior art method (Hay et al) (hESC [2]; DMSO method day 4 (KCGE D4) versus Hay D5) | CXCR4 expression (hESC [2]; [6]) | GATA4 expression (hESC [2]; [6]) | OCT4 expression (hESC [2]; [6]) | SOX17 expression (hESC [2]; [6]) | OCT4 expression (hESC [3]; increasing concentrations of DMSO from 0% to 2% with Activin A) | DMSO concentration at which SOX 17 staining was maximum (hESC [3]; with Activin A) [%] | ALB expression (hESC [4]) | differentiation to DE (hESC [1]) |
| --- | --- | --- | --- | --- | --- | --- | --- | --- | --- | --- | --- | --- | --- |
| C[S+](C)[O-] [DMSO, dimethyl sulfoxide] | decrease | increase | down regulation | rapid down regulation | significant improvement | up regulation | up regulation | significant dose dependent decrease | up regulation | down regulation | 0.6 | increased |  |
| FGF2: growth factor reported to aid in DE differentiation, used in conjunction with Activin A |  |  |  |  |  |  |  |  |  |  |  |  | inferior |
| B1 |  |  |  |  |  |  |  |  |  |  |  |  | inferior |
